Results: ChEMBL document CHEMBL4725267, “Design and synthesis of potent inhibitors of bc complex based on natural product neopeltolide” (Bioorg Med Chem Lett, 2020)

Key:
Sus scrofa [1] = species: Sus scrofa; test: (§1) Inhibition of porcine heart Succinate-cytochrome c reductase complex 2 by measuring decrease in DCIP at 10 uM relative to control; assay type: tissue-based
[2] = Inhibition of porcine heart Succinate-cytochrome c reductase complex 2 by measuring decrease in DCIP; assay type: tissue-based, Sus scrofa
[3] = as §1; assay type: tissue-based, Sus scrofa
Sus scrofa [4] = species: Sus scrofa; test: Inhibition of porcine heart Succinate-cytochrome c reductase complex 2 by measuring decrease in DCIP at 1 uM relative to control; assay type: tissue-based
[5] = Inhibition of bovine heart mitochondrial cytochrome bc1 complex; assay type: mitochondria, Bos taurus, Mitochondria

| SMILES | inhibition (Sus scrofa [1]) [%] | other results |
| --- | --- | --- |
| COC(=O)NC/C=C\c1nc(C(=O)OCc2cccc3c2c(Cl)cn3C)co1 | < 10 | – |
| COC(=O)NC/C=C\c1nc(C(=O)OCc2cccc3c2c(Cl)cn3Cc2ccccc2C)co1 | 47 | – |
| COC(=O)NC/C=C\c1nc(C(=O)Nc2cccc3c2ccn3Cc2ccc(F)cc2)co1 | – | IC50 [2]: 1460 nM |
| COC(=O)NC/C=C\c1nc(C(=O)OCc2cccc3c2c(Cl)cn3Cc2cc(C)cc(C)c2)co1 | 27 | – |
| COC(=O)NC/C=C\c1nc(C(=O)Nc2cccc3c2ccn3Cc2ccccc2F)co1 | – | IC50 [2]: 1340 nM |
| COC(=O)NC/C=C\c1nc(C(=O)OCc2cccc3c2c(Cl)cn3Cc2ccc(C)cc2)co1 | 11 | – |
| COC(=O)NC/C=C\c1nc(C(=O)OCc2cccc3c2c(Cl)cn3Cc2ccccc2Br)co1 | 33 | – |
| COC(=O)NC/C=C\c1nc(C(=O)OCc2cccc3c2c(Cl)cn3Cc2ccc(F)cc2F)co1 | 46 | – |
| COC(=O)NC/C=C\c1nc(C(=O)Nc2cccc3c2ccn3Cc2cccc(F)c2)co1 | – | IC50 [2]: 1750 nM |
| CO/C=C(/C(=O)OC)c1ccccc1Oc1cc(Oc2ccccc2C#N)ncn1 [AZOXYSTROBIN] | – | IC50 [3]: 700 nM |
| COC(=O)NC/C=C\c1nc(C(=O)OCc2cccc3[nH]cc(Cl)c23)co1 | 12 | – |
| COC(=O)NC/C=C\c1nc(C(=O)Nc2cccc3c2ccn3Cc2cccc(C)c2)co1 | – | IC50 [2]: 700 nM |
| C=CCn1cc(Cl)c2c(COC(=O)c3coc(/C=C\CNC(=O)OC)n3)cccc21 | 21 | – |
| COC(=O)NC/C=C\c1nc(C(=O)OCc2cccc3c2c(Cl)cn3Cc2ccc(Br)cc2)co1 | 14 | – |
| CCCn1cc(Cl)c2c(COC(=O)c3coc(/C=C\CNC(=O)OC)n3)cccc21 | 24 | – |
| COC(=O)NC/C=C\c1nc(C(=O)OCc2cccc3c2c(Cl)cn3Cc2ccccc2F)co1 | 50 | – |
| COC(=O)NC/C=C\c1nc(C(=O)OCc2cccc3c2c(Cl)cn3Cc2ccc(F)cc2)co1 | 46 | – |
| COC(=O)NC/C=C\c1nc(C(=O)Nc2cccc3c2ccn3Cc2ccc(C)cc2)co1 | – | inhibition (Sus scrofa [4]): 55% |
| COC(=O)NC/C=C\c1nc(C(=O)OCc2cccc3c2c(Cl)cn3Cc2cccc(Cl)c2)co1 | 23 | – |
| CCn1cc(Cl)c2c(COC(=O)c3coc(/C=C\CNC(=O)OC)n3)cccc21 | < 10 | – |
| COC(=O)NC/C=C\c1nc(C(=O)OCc2cccc3c2c(Cl)cn3Cc2ccccc2Cl)co1 | 31 | – |
| COC(=O)NC/C=C\c1nc(C(=O)OCc2cccc3c2c(Cl)cn3Cc2cccc(C)c2)co1 | 49 | – |
| COC(=O)NC/C=C\c1nc(C(=O)Nc2cccc3c2ccn3Cc2ccccc2C)co1 | – | inhibition (Sus scrofa [4]): 65% |
| COC(=O)NC/C=C\c1nc(C(=O)OCc2cccc3c2c(Cl)cn3Cc2ccc(Cl)cc2)co1 | 31 | – |
| C#CCn1cc(Cl)c2c(COC(=O)c3coc(/C=C\CNC(=O)OC)n3)cccc21 | 25 | – |
| COC(=O)NC/C=C\c1nc(C(=O)OCc2cccc3c2c(Cl)cn3Cc2cccc(F)c2)co1 | 32 | – |
| COC(=O)NC/C=C\c1nc(C(=O)OCc2cccc3c2c(Cl)cn3Cc2ccccc2)co1 | 41 | – |
| COC(=O)NC/C=C\c1nc(C(=O)OCc2cccc3c2c(Cl)cn3Cc2cccc(Br)c2)co1 | 34 | – |
| CCC[C@H]1C[C@@H](OC)C[C@H](C)C[C@@H]2C[C@@H](OC(=O)/C=C\CCc3coc(/C=C\CNC(=O)OC)n3)C[C@H](CC(=O)O1)O2 | – | IC50 [5]: 2 nM |
